Results from PMC11602940, “Assessing multi-target antiviral and antioxidant activities of natural compounds against SARS-CoV-2: an integrated in vitro and in silico study” (Bioresources and Bioprocessing, 2024).
≈ marks a conversion by molar mass, not a printed value.

Legend:
[1] = Ferric reducing antioxidant power assay (FRAP)
Description: The FRAP assay is based on the reduction of ferric ions (Fe^3⁺) to ferrous ions (Fe^2⁺) in the presence of antioxidants. The reduced Fe^2⁺ forms a blue-colored complex with 2,4,6-tripyridyl-s-triazine (TPTZ), and the intensity of the color is directly proportional to the reducing power of the sample, which can be quantified spectrophotometrically. For the assay, an acetate buffer (300 mM, pH 3.6) is prepared by dissolving […] in 1 L of distilled water. The TPTZ solution (10 mM) is dissolved in 40 mM HCl, and the ferric chloride solution (FeCl₃, 20 mM) is prepared separately. The FRAP reagent is freshly prepared before the assay by mixing 10 parts acetate buffer, 1 part TPTZ solution, and 1 part FeCl₃ solution. This reagent is kept at 37 °C to ensure its stability during the reaction. For the sample preparation, different concentrations of samples were dissolved in methanol. Trolox, a well-known antioxidant, is used as the positive control and prepared at the same concentrations for comparison. To conduct the assay, 100 µL of each sample or Trolox solution is mixed with 3 mL of freshly prepared FRAP reagent in a 96-well plate or test tube. The mixtures are incubated at 37 °C for 30 min, allowing the antioxidants in the samples to reduce the Fe^3⁺ ions to Fe^2⁺. After incubation, the absorbance of the resulting blue-colored complex is measured at 593 nm using a UV–visible spectrophotometer. The FRAP value of each sample is calculated by comparing the absorbance to a standard curve generated using known concentrations of ferrous sulfate (FeSO₄). The antioxidant capacity is expressed as µmol Fe^2⁺ equivalents/g of the sample. The experiment included three separate readings for every measurement.

[2] = Cupric ion reducing antioxidant capacity assay (CUPRAC)
Description: The CUPRAC assay evaluates the ability of antioxidants to reduce cupric ions (Cu^2⁺) to cuprous ions (Cu^1⁺), forming a stable colored complex with neocuproine. For the assay, a CUPRAC reagent is prepared by mixing 10 mL of 10 mM copper(II) chloride (CuCl₂), 10 mL of 7.5 mM neocuproine, and 10 mL of ammonium acetate buffer (pH 7.0). […] Trolox is again used as the positive control and prepared at the same concentrations. For the assay, 1 mL of each sample concentration or Trolox is mixed with 1 mL of CUPRAC reagent in a 96-well plate or test tube. The reaction mixture is incubated at room temperature for 30 min to allow a complete reduction of Cu^2⁺ to Cu^1⁺. The absorbance is then measured at 450 nm using a UV–visible spectrophotometer. The antioxidant capacity is determined by comparing the absorbance to a Trolox standard curve, and the results were expressed as µmol Trolox equivalents/g of the sample. All measurements are performed in triplicate.

[3] = ABTS radical cation scavenging activity
Description: The activity of scavenging ABTS radical cation was assessed across various concentrations, and the outcomes were juxtaposed with those obtained from standard materials. The selected compounds and vitamin C were evaluated at corresponding concentrations, following the methodology outlined in a prior study (AlBalawi et al. [2023]). Using the absorbance reading at 734 nm, the percentage of ABTS radical cation scavenging activity was computed using the formula: %ABTSradicalcationscavengingactivity=1-AsampleAsampleAcontrolAcontrol×100TopofForm

Vero CCL-81 cells [4] = test: MTT cytotoxicity assay; format: cell-based; conditions: 48 h
Description: An MTT (3-[4,5-dimethylthiazol-2-yl]-2,5 diphenyl tetrazolium bromide) assay was used to measure the effects of the selected compounds on Vero CCL-81 cells to ascertain the cytotoxicity of the compounds (Njeru and Muema [2021]; El-Shehawy et al. [2023]). To summarize, Vero CCL-81 cells were seeded in 96-well plates with 1.0 × 10^4 cells per well in DMEM supplemented with 2% FBS at a density of 1.0 × 10^4 cells per well. In the following step, the plates were incubated at 37 °C with 5% CO2 for 24 h before they were collected. A dilution of 150 µL of compounds was added in quadruplicate to each well after the incubation, and the wells were kept at 37 °C with 5% CO2 for 48 h. After the PBS was added to each well, a final step was to add 30 µL of MTT, remove the supernatants, and wash with PBS twice. A 2 h incubation period was conducted after MTT addition, at 37 °C, using 5% CO2, and it was protected from light for 2 h. A 100 µL/well DMSO solution was added to the wells to dissolve the formazan crystals (El-Sewedy et al. [2023]). Positive controls (cells treated with a known cytotoxic agent) and negative controls (untreated cells) were included in each experiment and were in triplicate.

Vero CCL-81 cells [5] = test: Dose-dependent assay (Chou-Talalay, CompuSyn) from MTT data; format: cell-based
Description: The compounds were analyzed using MTT assay data. By applying the Chou-Talalay method, the dose-dependent effect was calculated (Elwakeel et al. [2019]). This calculation was performed using CompuSyn software. The dose–effect curves were created for both single treatments, and the fraction affected (Fa) values were determined for each dose and corresponding effect as previously reported (El-Sewedy et al. [2023]). The dose-dependent assay was carried out in triplicate to guarantee reproducibility.

SARS-CoV-2 = format: cell-based

Cc1c(C)c2c(c(C)c1O)CCC(C)(C(=O)O)O2 (stereo not shown) [Trolox, reference compound]
FRAP ± SD ([1]; 1000 µg/mL): 1200.00 ± 20.00 μmol Fe^2⁺ eq/g
CUPRAC ± SD ([2]; 1000 µg/mL): 1100.00 ± 17.50 μmol Trolox eq/g
ABTS ± SD ([3]; 1000 µg/mL): 1300.00 ± 22.00 μmol Trolox eq/g

COc1cc(/C=C/C(=O)CC(=O)/C=C/c2ccc(O)c(OC)c2)ccc1O [Curcumin]
IC50 (Vero CCL-81 cells [4]): 83.2 µg/mL (≈ 226 µM)
Dose at fraction affected (Fa) (Vero CCL-81 cells [5]; Fa 0.5, 48 h treatment): 9.421
Dose at fraction affected (Fa) (Vero CCL-81 cells [5]; Fa 0.75, 48 h treatment): 20.7718
Dose at fraction affected (Fa) (Vero CCL-81 cells [5]; Fa 0.9, 48 h treatment): 45.7973
Dose at fraction affected (Fa) (Vero CCL-81 cells [5]; Fa 0.95, 48 h treatment): 78.4112
Dose at fraction affected (Fa) (Vero CCL-81 cells [5]; Fa 0.97, 48 h treatment): 114.960
effect on SARS-CoV-2 viral titer (SARS-CoV-2): reduced viral titer

O=c1c(O)c(-c2ccc(O)c(O)c2)oc2cc(O)cc(O)c12 [Quercetin]
IC50 (Vero CCL-81 cells [4]): 55.2 µg/mL (≈ 183 µM)
Dose at fraction affected (Fa) (Vero CCL-81 cells [5]; Fa 0.5, 48 h treatment): 12.0260
Dose at fraction affected (Fa) (Vero CCL-81 cells [5]; Fa 0.75, 48 h treatment): 46.3852
Dose at fraction affected (Fa) (Vero CCL-81 cells [5]; Fa 0.9, 48 h treatment): 178.911
Dose at fraction affected (Fa) (Vero CCL-81 cells [5]; Fa 0.95, 48 h treatment): 448.103
Dose at fraction affected (Fa) (Vero CCL-81 cells [5]; Fa 0.97, 48 h treatment): 861.173
FRAP ± SD ([1]; 10 µg/mL): 120.30 ± 4.00 μmol Fe^2⁺ eq/g
FRAP ± SD ([1]; 20 µg/mL): 200.15 ± 5.20 μmol Fe^2⁺ eq/g
FRAP ± SD ([1]; 40 µg/mL): 350.45 ± 7.50 μmol Fe^2⁺ eq/g
FRAP ± SD ([1]; 80 µg/mL): 600.55 ± 10.10 μmol Fe^2⁺ eq/g
FRAP ± SD ([1]; 100 µg/mL): 800.45 ± 12.50 μmol Fe^2⁺ eq/g
CUPRAC ± SD ([2]; 10 µg/mL): 115.25 ± 3.70 μmol Trolox eq/g
CUPRAC ± SD ([2]; 20 µg/mL): 190.20 ± 5.00 μmol Trolox eq/g
CUPRAC ± SD ([2]; 40 µg/mL): 340.30 ± 7.00 μmol Trolox eq/g
CUPRAC ± SD ([2]; 80 µg/mL): 590.10 ± 9.50 μmol Trolox eq/g
CUPRAC ± SD ([2]; 100 µg/mL): 780.55 ± 11.20 μmol Trolox eq/g
ABTS ± SD ([3]; 10 µg/mL): 130.40 ± 4.50 μmol Trolox eq/g
ABTS ± SD ([3]; 20 µg/mL): 210.10 ± 6.00 μmol Trolox eq/g
ABTS ± SD ([3]; 40 µg/mL): 360.40 ± 8.00 μmol Trolox eq/g
ABTS ± SD ([3]; 80 µg/mL): 620.20 ± 11.50 μmol Trolox eq/g
ABTS ± SD ([3]; 100 µg/mL): 820.30 ± 14.00 μmol Trolox eq/g
concentration to which antiviral properties were limited (SARS-CoV-2): 100 µg/mL
effect on SARS-CoV-2 viral titer (SARS-CoV-2): no noticeable change in viral titer

CCC(CC)COC(=O)[C@H](C)N[P@](=O)(OC[C@H]1O[C@@](C#N)(c2ccc3c(N)ncnn23)[C@H](O)[C@@H]1O)Oc1ccccc1 [RVD, Remdesivir, reference compound]
decrease in SARS-CoV-2 viral titer (SARS-CoV-2): 100%
